Measured values as given in patent US20030219451A1, “Stable helical C peptides and uses therefor” (priority 2001, published 2003).
Several values for one entry are separate records, joined by “and”; a condition that tells them apart may be missing. Equal entries are not always repeated. Where two headings read alike, the source gives them in different places.

Experiments:
[1] = biological target: HIV-1 gp41 envelope glycoprotein (HXB2 envelope) (HIV-1 (HXB2)) (UniProt P04578); assay: cell-based or functional assay
[2] = system: HIV-1 envelope mediated fusion of CHO gp160 cells with CD4 HeLa cells
Procedure: The peptides were tested for inhibiting the fusion of HIV-1 Env expressing cells (CHO gp 160) with CD4expressing cells (CD4 HeLa) (D. C. Chan, et al., Proc. Natl. Acad. Sci., 95:15613-15617 (1998)).
(§1) Assessment of viral infectivity and syncytia formation were carried out as described by Eckert et al., Cell, 99:103-115 (1999). In both inhibition assays, peptide stocks were dissolved in dimethylsulfoxide and their concentrations determined by absorbance in guanidine at 280 nm. The final concentration of dimethylsulfoxide in tissue culture media was 1% in all experiments. Inhibition of cell-cell fusion (syncytia formation) (G. J. Nabel, Nature 410, 1002-1007 (2001); D. C. Chan, C. T. Chutkowski, P. S. Kim, Proc. Natl. Acad. Sci. 95, 15613-15617 (1998)) was assayed by co-culturing 3×10^4 Chinese hamster ovary (CHO) cells expressing HXB2 envelope and tat and rev with 5×10^4 HeLa cells expressing CD4 and LTR-driven β-galactosidase in the presence of varying concentrations of peptides. The CHO and HeLa cells were incubated in the presence of peptides for 20 hours, and stained with 5-bromo-4-chloro-3-indolyl-β-D-galactoside (X-gal) to detect the syncytia, which were visualized by microscopy and counted manually. In the viral infectivity assay, the ability of the peptides to inhibit HIV-1 infection was assayed using a recombinant luciferase-encoding HIV-1 (G. J. Nabel, Nature 410, 1002-1007 (2001); D. C. Chan, C. T. Chutkowski, P. S. Kim, Proc. Natl. Acad. Sci. 95, 15613-15617 (1998)). 293T cells were co-transfected with an envelope-deficient HIV-1 genome with a luciferase gene (NL43LucR-E-) [B. K. Chen, K. Saksela, R. Andino, D. Baltimore, J. Virol. 68, 654-660 (1994)] and the HXB2 gp160 expression vector (pCMVHXB2 gpl60). Low-speed centrifugation was used to clear the viral supernatants of cellular debris. The supernatant containing the viruses was used to infect HOS cells expressing CD4 and CXCR4 (HOS-CD4/Fusin cells, N. Landau, National Institutes of Health AIDS Reagent Program) in the presence of varying concentrations of peptides. The HOS cells were harvested 48 hours post-infection, and luciferase activity was monitored using a Wallac AutoLumat LB953 luminometer. In both assays, the IC50, the concentration needed to inhibit 50% of cell-cell fusion events or luciferase activity, was calculated from fitting the data to the equation, y=k/(1+[peptide]/IC50), where y=number of syncytia or luciferase activity and k is a scaling constant.
To test how well the HIV-1-neutralizing epitope was recapitulated, two assays were used to measure the potency of the designed peptides in inhibiting HIV-1 envelope-mediated membrane fusion. The biological activity of the designed peptides were first measured by their ability to inhibit fusion of HeLa cells expressing CD4 and chemokine receptors and CHO expressing HIV envelope protein (D. C. Chan, C. T. Chutkowski, P. S. Kim, Proc. Natl. Acad. Sci. 95: 15613-15617 (1998)).

[3] = system: recombinant luciferase-expressing HIV-1 infecting HOS-CD4/Fusin cells
Procedure: The peptides were tested for inhibition of CD4 positive target cells (HOST4) by recombinant, luciferase-expressing HIV-1 (D. C. Chan, C. T. Chutkowski, P. S. Kim, Proc. Natl. Acad. Sci. 95, 15613-15617 (1998)).
as §1
In a second assay, the ability of the peptides to inhibit HIV infection of HOS cells expressing CD4 and CXCR4 was measured, using a luciferase-based reporter assay (D. C. Chan, C. T. Chutkowski, P. S. Kim, Proc. Natl. Acad. Sci. 95: 15613-15617 (1998); Chen, B. K., et al.,J. Virol., 68(2):[…] (1994)).

[4] = 10 μM; Gonzalez et al. 1996; cited from earlier work
[5] = Circular dichroism spectroscopy; format: physicochemical; conditions: PBS, pH 7.0, 25° C., C34-GCN4 with about 0.7 M guanidine hydrochloride
Procedure: The guanidine hydrochloride used to solubilize C34-GCN4 absorbs light at wavelengths below 210 nm. Experimental conditions were PBS, pH 7.0, 25° C.
CD spectra were measured on an Aviv 60DS spectrapolarimeter at 25° C. in phosphate buffered saline (PBS; 10 mM sodium phosphate, 150 mM NaCl, pH 7.0). […] Guanidine concentrations were measured by refractometry.

[6] = system: HIV-1 envelope mediated fusion of CHO gp160 cells with CD4 HeLa cells; conditions: C34 data taken from Chan et al., PNAS 95:15613 (1998); read-out: Cell-Cell Fusion Assay (IC50 in nM); cited from earlier work
[7] = system: recombinant luciferase-expressing HIV-1 infecting HOS-CD4/Fusin cells; conditions: C34 data taken from Chan et al., PNAS 95:15613 (1998); read-out: Viral Infectivity Assay (IC50 in nM); cited from earlier work

With C34-GCN4 peptide (designed binder) the Cell-Cell Fusion Assay (IC50 in nM) [1] was 5 nM, the Viral Infectivity Assay (IC50 in nM) [1] was 16 nM and the inhibition of cell-cell fusion, IC50 [1] was 4.6 nM. The inhibition of viral infectivity, IC50 [1] was 19 nM.

In the case of “GCN4 homodimer: covalent homodimer of CGG-GCN4”, the “inhibition of cell-cell fusion, in words” value [2] is reported as “no activity”, the “Cell-Cell Fusion Assay (IC50 in nM)” value ([2]; CHO cells expressing HXB2 envelope co-cultured with CD4 HeLa cells, 20 hours, 1% DMSO) is reported as “none” and the IC50 ([2]; read-out: no inhibitory activity in cell-cell fusion up to stated concentration, highest concentration without measurable inhibition) is reported as > 50000 nM. For the same substance, the “inhibition of viral infectivity, in words” value [3] was “no activity”, the “Viral Infectivity Assay (IC50 in nM)” value ([3]; HOS cells expressing CD4 and CXCR4, luciferase 48 hours post-infection, 1% DMSO) was “none” and the IC50 ([3]; read-out: no inhibitory activity in viral infectivity up to stated concentration, highest concentration without measurable inhibition) was > 50000 nM. For the same substance, the “transition midpoint under temperature denaturation” value [4] was “over 100 °C”.

With “Ac-WRMWDLEIKVYTLLIKNLILESEVQQLKNLVELR-NH2 (C-terminus assumed) [Peptide C34-GCN4]” the “inhibition of cell-cell fusion, in words” value [2] was “strong inhibitory potency”, the IC50 ([2]; read-out: Cell-Cell Fusion Assay (IC50 in nM), CHO cells expressing HXB2 envelope co-cultured with CD4 HeLa cells, 20 hours, 1% DMSO) was 4.6 nM and 5 nM and the IC50 ([3]; read-out: Viral Infectivity Assay (IC50 in nM), HOS cells expressing CD4 and CXCR4, luciferase 48 hours post-infection, 1% DMSO) was 16 nM. The “[Θ]222 value” ([5]; listed as C34-GCN4 peptide) was −12,400 deg cm^2 dmol^−1 and −12,000 deg cm^2 dmol^−1 and the solubility was < 1 µM.

In the case of “C34: linear C-peptide of HIV-1 gp41 (SEQ ID NO: 2), unstructured in solution [Peptide C34]”, the “[Θ]222 value” [5] is given as −3,800 deg cm^2 dmol^−1, the IC50 [6] is given as 0.6 nM and the IC50 [7] is given as 2.1 nM.

For GCN4 homodimer, the inhibition of cell-cell fusion [1] was > 50 µM and the inhibition of viral infectivity [1] was > 50 µM.
